{"source": "the supplement of paper PMC10307832", "assay_in_all_cases": "relative viability (nuclei count vs DMSO), 5 days (fraction); higher = more cells survive", "key": {"SK-LU-1": {"system": "SK-LU-1", "in_short": "(§1)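 Medians of duplicate plates are given as relative viability. That measure is the nuclei count in treated wells divided by the count in vehicle wells. Counts were taken on 4× images of lung cancer cell lines in 1536-well plates, 5 days after pin-tool dosing the day after seeding with one drug alone or a fixed anchor-drug dose plus five library-drug doses (not always all listed) in √10 steps.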"}, "NCI-H2405": {"system": "NCI-H2405", "in_short": "as §1"}, "HARA": {"system": "HARA", "in_short": "as §1"}, "NCI-H661": {"system": "NCI-H661", "in_short": "as §1"}, "NCI-H596": {"system": "NCI-H596", "in_short": "as §1"}, "NCI-H647": {"system": "NCI-H647", "in_short": "as §1"}, "SK-MES-1": {"system": "SK-MES-1", "in_short": "as §1"}, "NCI-H2342": {"system": "NCI-H2342", "in_short": "as §1"}, "NCI-H1437": {"system": "NCI-H1437", "in_short": "as §1"}, "LC-2-ad": {"system": "LC-2-ad", "in_short": "as §1"}, "LOU-NH91": {"system": "LOU-NH91", "in_short": "as §1"}}, "data": [{"molecule": "CC1(C)CCC(c2ccc(Cl)cc2)=C(CN2CCN(c3ccc(C(=O)NS(=O)(=O)c4ccc(N[C@H](CCN5CCOCC5)CSc5ccccc5)c(S(=O)(=O)C(F)(F)F)c4)cc3)CC2)C1", "note": "[Navitoclax] + O=C(CCCCCCC(=O)Nc1ccccc1)NO [Vorinostat] (partner 1 µM)", "values": [{"measurement": "relative viability", "setting": "SK-LU-1; first compound 0.01581 µM", "result": 0.776}, {"measurement": "relative viability", "setting": "SK-LU-1; first compound 0.05 µM", "result": 0.689}, {"measurement": "relative viability", "setting": "SK-LU-1; first compound 0.1581 µM", "result": 0.627}, {"measurement": "relative viability", "setting": "SK-LU-1; first compound 0.5 µM", "result": 0.516}, {"measurement": "relative viability", "setting": "NCI-H2405; first compound 0.005 µM", "result": 0.979}, {"measurement": "relative viability", "setting": "NCI-H2405; first compound 0.01581 µM", "result": 1.09}, {"measurement": "relative viability", "setting": "NCI-H2405; first compound 0.05 µM", "result": 1.11}, {"measurement": "relative viability", "setting": "NCI-H2405; first compound 0.1581 µM", "result": 1}, {"measurement": "relative viability", "setting": "NCI-H2405; first compound 0.5 µM", "result": 0.811}, {"measurement": "relative viability", "setting": "HARA; first compound 0.005 µM", "result": 0.536}, {"measurement": "relative viability", "setting": "HARA; first compound 0.01581 µM", "result": 0.629}, {"measurement": "relative viability", "setting": "HARA; first compound 0.1581 µM", "result": 0.521}, {"measurement": "relative viability", "setting": "HARA; first compound 0.5 µM", "result": 0.55}, {"measurement": "relative viability", "setting": "NCI-H661; first compound 0.005 µM", "result": 0.769}, {"measurement": "relative viability", "setting": "NCI-H661; first compound 0.01581 µM", "result": 0.727}, {"measurement": "relative viability", "setting": "NCI-H661; first compound 0.05 µM", "result": 0.809}, {"measurement": "relative viability", "setting": "NCI-H661; first compound 0.1581 µM", "result": 0.763}, {"measurement": "relative viability", "setting": "NCI-H661; first compound 0.5 µM", "result": 0.772}, {"measurement": "relative viability", "setting": "NCI-H596; first compound 0.005 µM", "result": 0.648}, {"measurement": "relative viability", "setting": "NCI-H596; first compound 0.01581 µM", "result": 0.739}, {"measurement": "relative viability", "setting": "NCI-H596; first compound 0.05 µM", "result": 0.299}, {"measurement": "relative viability", "setting": "NCI-H596; first compound 0.1581 µM", "result": 0.55}, {"measurement": "relative viability", "setting": "NCI-H596; first compound 0.5 µM", "result": 0.496}, {"measurement": "relative viability", "setting": "NCI-H647; first compound 0.005 µM", "result": 0.536}, {"measurement": "relative viability", "setting": "NCI-H647; first compound 0.01581 µM", "result": 0.52}, {"measurement": "relative viability", "setting": "NCI-H647; first compound 0.05 µM", "result": 0.673}, {"measurement": "relative viability", "setting": "NCI-H647; first compound 0.1581 µM", "result": 0.405}, {"measurement": "relative viability", "setting": "NCI-H647; first compound 0.5 µM", "result": 0.512}, {"measurement": "relative viability", "setting": "SK-MES-1; first compound 0.005 µM", "result": 1.06}, {"measurement": "relative viability", "setting": "SK-MES-1; first compound 0.01581 µM", "result": 1.42}, {"measurement": "relative viability", "setting": "SK-MES-1; first compound 0.05 µM", "result": 1.15}, {"measurement": "relative viability", "setting": "SK-MES-1; first compound 0.1581 µM", "result": 1.1}, {"measurement": "relative viability", "setting": "SK-MES-1; first compound 0.5 µM", "result": 1.17}, {"measurement": "relative viability", "setting": "NCI-H2342; first compound 0.005 µM", "result": 0.752}, {"measurement": "relative viability", "setting": "NCI-H2342; first compound 0.01581 µM", "result": 0.732}, {"measurement": "relative viability", "setting": "NCI-H2342; first compound 0.05 µM", "result": 0.814}, {"measurement": "relative viability", "setting": "NCI-H2342; first compound 0.1581 µM", "result": 0.804}, {"measurement": "relative viability", "setting": "NCI-H2342; first compound 0.5 µM", "result": 0.779}, {"measurement": "relative viability", "setting": "NCI-H1437; first compound 0.005 µM", "result": 0.834}, {"measurement": "relative viability", "setting": "NCI-H1437; first compound 0.01581 µM", "result": 0.888}, {"measurement": "relative viability", "setting": "NCI-H1437; first compound 0.05 µM", "result": 0.847}, {"measurement": "relative viability", "setting": "NCI-H1437; first compound 0.1581 µM", "result": 0.88}, {"measurement": "relative viability", "setting": "NCI-H1437; first compound 0.5 µM", "result": 0.808}, {"measurement": "relative viability", "setting": "LC-2-ad; first compound 0.005 µM", "result": 0.716}, {"measurement": "relative viability", "setting": "LC-2-ad; first compound 0.01581 µM", "result": 0.686}, {"measurement": "relative viability", "setting": "LC-2-ad; first compound 0.05 µM", "result": 0.665}, {"measurement": "relative viability", "setting": "LC-2-ad; first compound 0.1581 µM", "result": 0.67}, {"measurement": "relative viability", "setting": "LC-2-ad; first compound 0.5 µM", "result": 0.712}, {"measurement": "relative viability", "setting": "LOU-NH91; first compound 0.005 µM", "result": 0.956}, {"measurement": "relative viability", "setting": "LOU-NH91; first compound 0.01581 µM", "result": 0.925}, {"measurement": "relative viability", "setting": "LOU-NH91; first compound 0.05 µM", "result": 0.791}, {"measurement": "relative viability", "setting": "LOU-NH91; first compound 0.1581 µM", "result": 0.639}, {"measurement": "relative viability", "setting": "LOU-NH91; first compound 0.5 µM", "result": 0.437}]}]}
